Measured values reported in US20230167073A1 (Teijin Pharma Limited, priority 2020, published 2023).

These molecules were tested against T1, Human TRPC6 (Homo sapiens, UniProt Q9Y210) (assay: Evaluation of TRPC6 channel inhibitory activity (1), FLIPR Calcium 5 Assay Kit, OAG stimulation (Compound Nos. 1-1293)). Details: Human TRPC6 stably-expressing cells, OAG 30 μM, FLIPR Calcium 5 Assay Kit; read-out: Inhibitory activity (pIC50 class) (converted).
T1 construct: expressed in transfected cells
T1 sequence (Q9Y210 1-931): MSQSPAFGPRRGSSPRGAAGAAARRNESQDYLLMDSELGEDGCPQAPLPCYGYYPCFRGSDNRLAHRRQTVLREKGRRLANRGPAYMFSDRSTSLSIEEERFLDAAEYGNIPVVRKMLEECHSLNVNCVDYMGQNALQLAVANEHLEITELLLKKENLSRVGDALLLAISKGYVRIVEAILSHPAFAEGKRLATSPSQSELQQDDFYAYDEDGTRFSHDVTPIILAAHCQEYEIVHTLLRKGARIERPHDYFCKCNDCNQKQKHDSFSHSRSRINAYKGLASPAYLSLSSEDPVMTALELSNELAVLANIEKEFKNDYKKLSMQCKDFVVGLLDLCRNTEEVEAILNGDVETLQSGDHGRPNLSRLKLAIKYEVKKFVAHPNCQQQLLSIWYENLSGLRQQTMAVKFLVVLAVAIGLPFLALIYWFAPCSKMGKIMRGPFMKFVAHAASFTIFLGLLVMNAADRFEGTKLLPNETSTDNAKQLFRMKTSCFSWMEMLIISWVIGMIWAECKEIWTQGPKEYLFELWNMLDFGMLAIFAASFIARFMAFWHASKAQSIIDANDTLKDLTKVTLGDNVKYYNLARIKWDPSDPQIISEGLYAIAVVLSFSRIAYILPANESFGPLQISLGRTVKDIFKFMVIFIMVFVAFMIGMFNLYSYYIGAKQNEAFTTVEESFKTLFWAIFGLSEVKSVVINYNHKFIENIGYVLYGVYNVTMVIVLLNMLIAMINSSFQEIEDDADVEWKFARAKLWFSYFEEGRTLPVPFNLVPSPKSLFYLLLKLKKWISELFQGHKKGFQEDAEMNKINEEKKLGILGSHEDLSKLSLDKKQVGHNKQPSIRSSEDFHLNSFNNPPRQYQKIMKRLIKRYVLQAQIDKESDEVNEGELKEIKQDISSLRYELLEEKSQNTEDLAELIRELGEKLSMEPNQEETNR
Assay type: cell-based
Method in brief: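 Stable human TRPC6 line; fluorescent Ca2+ dye loading, then 20 min compound exposure before 30 μM OAG trigger. Peak-minus-baseline signal converted to % inhibition against untreated and unstimulated wells; potency given as pIC50 band.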

IC50 [nM] | Compound
10 to 1000 | Cc1cc(Oc2cc(C#N)ccc2-c2ccc([C@H](O)CN)cn2)cc(-c2nccs2)n1 [compound 689, 4-[5-[(1S)-2-amino-1-hydroxyethyl]pyridin-2-yl]-3-[2-methyl-6-(1,3-thiazol-2-yl)pyridin-4-yl]oxybenzonitrile]
10 to 1000 | Cc1cc(Oc2cc(C#N)ccc2-c2ccc([C@H](O)CN)cn2)cc(-c2ncco2)n1 [compound 690, 4-[5-[(1S)-2-amino-1-hydroxyethyl]pyridin-2-yl]-3-[2-methyl-6-(1,3-oxazol-2-yl)pyridin-4-yl]oxybenzonitrile]
< 10 | Cc1cc(Oc2cc(C#N)ccc2-c2ccc([C@H](O)CN)cn2)cc(-c2ccccn2)n1 [compound 691, 4-[5-[(1S)-2-amino-1-hydroxyethyl]pyridin-2-yl]-3-(2-methyl-6-pyridin-2-ylpyridin-4-yl)oxybenzonitrile]
> 1000 | Cc1cc(Oc2cc(C#N)ccc2-c2ccc([C@H](O)CN)cn2)cc(-c2ncccn2)n1 [compound 692, 4-[5-[(1S)-2-amino-1-hydroxyethyl]pyridin-2-yl]-3-(2-methyl-6-pyrimidin-2-ylpyridin-4-yl)oxybenzonitrile]
10 to 1000 | Cc1cc(Oc2cc(C#N)ccc2-c2ccc([C@H](O)CN)cn2)cc(-c2cnccn2)n1 [compound 693, 4-[5-[(1S)-2-amino-1-hydroxyethyl]pyridin-2-yl]-3-(2-methyl-6-pyrazin-2-ylpyridin-4-yl)oxybenzonitrile]
10 to 1000 | Cc1cc(Oc2cc(C#N)ccc2-c2ccc([C@H](O)CN)cn2)cc(-c2nc(C)cs2)n1 [compound 694, 4-[5-[(1S)-2-amino-1-hydroxyethyl]pyridin-2-yl]-3-[2-methyl-6-(4-methyl-1,3-thiazol-2-yl)pyridin-4-yl]oxybenzonitrile]
< 10 | N#Cc1ccc(-c2ccc(CN)cn2)c(Oc2cnnc(C3CC3)c2)c1 [compound 695, 4-[5-(aminomethyl)pyridin-2-yl]-3-(6-cyclopropylpyridazin-4-yl)oxybenzonitrile]
< 10 | N#Cc1ccc(-c2ccc(CN)cn2)c(Oc2cnnc(N3CCCC3)c2)c1 [compound 696, 4-[5-(aminomethyl)pyridin-2-yl]-3-(6-pyrrolidin-1-ylpyridazin-4-yl)oxybenzonitrile]
< 10 | N#Cc1ccc(-c2ccc(CN)cn2)c(Oc2cnnc(N3CCCCC3)c2)c1 [compound 697, 4-[5-(aminomethyl)pyridin-2-yl]-3-(6-piperidin-1-ylpyridazin-4-yl)oxybenzonitrile]
10 to 1000 | CN(C)c1cc(Oc2cc(C#N)ccc2-c2ccc(CN)cn2)cnn1 [compound 698, 4-[5-(aminomethyl)pyridin-2-yl]-3-[6-(dimethylamino)pyridazin-4-yl]oxybenzonitrile]
> 1000 | N#Cc1ccc(-c2ncc(CN)cn2)c(Oc2nnc(-c3ccccn3)s2)c1 [compound 699, 4-[5-(aminomethyl)pyrimidin-2-yl]-3-[(5-pyridin-2-yl-1,3,4-thiadiazol-2-yl)oxy]benzonitrile]
> 1000 | N#Cc1ccc(-c2ncc(CN)cn2)c(Oc2nnc(Br)s2)c1 [compound 700, 4-[5-(aminomethyl)pyrimidin-2-yl]-3-[(5-bromo-1,3,4-thiadiazol-2-yl)oxy]benzonitrile]
< 10 | Cc1cc(Oc2cc(C#N)ccc2-c2ncc(C(C)N)cn2)cc(N2CCOCC2)n1 (stereo not drawn) [compound 701]
< 10 | CC(N)c1cnc(-c2ccc(C#N)cc2Oc2cc(-c3ccccn3)nn2C)nc1 (stereo not drawn) [compound 702, 4-[5-(1-aminoethyl)pyrimidin-2-yl]-3-(2-methyl-5-pyridin-2-ylpyrazol-3-yl)oxybenzonitrile]
10 to 1000 | N#Cc1ccc(-c2ncc(CCN)cn2)c(Oc2nnc(-c3ccccn3)s2)c1 [compound 703, 4-[5-(2-aminoethyl)pyrimidin-2-yl]-3-[(5-pyridin-2-yl-1,3,4-thiadiazol-2-yl)oxy]benzonitrile]
